In experiment [1] the test system is LCLs (lymphoblastoid cells). Put plainly: Proliferation and apoptosis in LCLs with cytotoxic drugs plus G3139 or rituximab. In kind it is cell-based. The source says:
(§1) The use of the targeted therapies, G3139 ([…], Genta, Inc.) and rituximab, to enhance chemosensitivity in EBV-associated lymphoproliferative disease (LPD) have been explored. EBV+LPDs such as post-transplant lymphoproliferative disorder (PTLD) and AIDS-related lymphoma (ARL) typically express bcl-2 and CD20. […] To determine whether these targeted therapies enhance chemosensitivity in EBV+LPD, the effects of cytotoxic drugs in combination with G3139 or rituximab on proliferation and apoptosis in LCLs were examined. […] To determine whether G3139 or rituximab enhanced the anti-tumor activity of chemotherapy in vivo, the effects of VP16 (15 mg/kg ip q3d×4); G3139 (10 mg/kg/d over 12 d ip q3d) or rituximab (20 mg/kg ip wkly×4); and VP16+G3139 or VP16+rituximab (same doses) on survival in the human-SCID model of PTLD were compared. Treatment was started 15 days after ip injection of 20 million LCLs.

The test system of experiment [2] is LCLs (EBV-associated lymphoproliferative disease). Put plainly: Survival in the human-SCID model of PTLD. It is filed as in vivo, mice. Particulars: for median survival: VP16 15 mg/kg ip q3dx4, G3139 10 mg/kg/d over 12 d ip, rituximab 20 mg/kg ip wklyx4, start 15 days after 20 million LCLs ip, untreated 50 days; for animals remaining tumor-free: monotherapy groups, stated jointly.
Text: as §1

Regarding “rituximab: targeted therapy; EBV+LPDs typically express bcl-2 and CD20”, the “effect in combination with chemotherapy” value in experiment [1] is recorded as “augmented the effects of chemotherapy”. For the same compound, in experiment [1] (alone), the effect on apoptosis entry is “no effect” and the effect on proliferation result was “minimal”. In experiment [2], the median survival came to 88 days and the animals remaining tumor-free was determined as 7%.
As to `COc1cc([C@@H]2c3cc4c(cc3[C@@H](O[C@@H]3O[C@@H]5CO[C@@H](C)O[C@H]5[C@H](O)[C@H]3O)[C@H]3COC(=O)[C@H]23)OCO4)cc(OC)c1O` [VP16, etoposide], in experiment [2], the median survival is recorded as 86 days and the animals remaining tumor-free was 7%.

Values taken from US7855183B2, “Methods of treatment of a bcl-2 disorder using bcl-2 antisense oligomers” (Genta Incorporated, priority 2000, dated 2010).
